From US6887468B1 (Board of Regents, The University of Texas System, priority 1999, dated 2005)
Entries after “also recorded” stand apart in the source; their conditions may differ.

Legend:
VEGFR2 (KDR/Fc) = assay: Co-precipitation assay, VEGF with VEGFR2/Fc in solution; type: binding; settings: F(ab′)2
Description: 200 ng of soluble forms of VEGFR1 (Flt-1/Fc) or VEGFR2 (KDR/Fc, R&D Systems, Minneapolis, Minn.) were added for a total volume of 50 μl and incubated for 2 hrs. The receptor/Fc constructs were precipitated using Protein A-sepbarose beads and the resulting precipitate was washed 4 times with binding buffer.
Reducing sample buffer was added to the pellet and supernatant of each reaction and both were analyzed by 12% SDS-PAGE and transferred to PVDF membranes. […] The soluble receptor/Fc constructs were also detected by using peroxidase-conjugated goat anti-human Fc (Kirkegaard & Perry Laboratories, Inc.)
The receptor/Fc constructs were precipitated by incubation with Protein A sepharose beads. The precipitate was washed and resuspended in reducing sample buffer and separated by 12% SDS-PAGE and transferred to PVDF.

VEGFR2 = assay: VEGF-induced phosphorylation of VEGFR2 in PAE/KDR cells (immunoprecipitation, western blot); type: cell-based, porcine aortic endothelial cells transfected with VEGFR2; settings: antibody 100 nM
Description: PAE/KDR, PAE/FLT, and bEND.3 cells were grown to 80-90% confluency in 100 mm tissue dishes in media containing 5% serum. The cells were then serum starved for 24 hours in media containing 0.1% serum. After pretreatment with 100 […] in PBS for 30 min, the cells were incubated with 5 nM (200 ng/ml) VEGF165, 5 nM (100 ng/ml) bFGF (R&D Systems, Minneapolis, Minn.), or A673 tumor conditioned media in the presence or absence of control or test antibodies for additional 15 min.
The cells were then washed with ice-cold PBS containing 10 mM EDTA, 2 mM sodium fluoride, and 2 mM sodium orthovanadate and lysed in lysis buffer (50 mM Tris, 150 mM NaCl, 1% Nonidet P40, 0.25% sodium deoxycholate, 0.1% CHAPS, 5 mM EDTA, 1.5 mM MgCl2, 2 mM sodium fluoride, 2 mM sodium orthovanadate, 10% glycerol and protease inhibitors (Complete Protease Inhibitor Cocktail tablets, Boehringer Mannheim)). The lysates were clarified by centrifugation and resulting supematant used for immunoprecipitation.
The reactions using the chicken anti-FLT-1 antibody were subsequently incubated with a bridging goat anti-chicken antibody (Kirkegaard and Perry Laboratories, Inc.) for 1 h at 4° C. […]

HT1080 fibrosarcoma = assay: Treatment of established HT1080 fibrosarcoma xenografts; type: in vivo, nu/nu mice; settings: 100 μg every two days
Description: (§1) FIG. 5A and FIG. 5B. […] Treatments (T) were 100 μg of the IgG given i.p., except for the initial treatment that consisted of 500 μg of the IgG given i.v. Mean tumor volume along with the SEM is shown. At the end of the study (day 116), the mice were sacrificed and the tumors dissected out and weighed. […] The mice were treated every other day as indicated (T). […] Mean tumor volume along with the SE is shown.
(§2) Male nu/nu mice bearing subcutaneous NCI-H358 tumors or HT1080 fibrosarcoma 200-400 mm^3 in size were injected i.p. with test or control antibodies. The NCI-H358 bearing mice were treated with 100 μg of antibodies per injection three times a week during the first week and twice a week during the second and third week. The mice were then switched to 50 μg per injection every five days. The HT1080 bearing mice were treated with 100 μg of the indicated antibody or saline every other day throughout the duration of the study. In both studies, mice were sacrificed when their tumors reached 2500 mm^3 in size or earlier if tumors began to ulcerate.

NCI-H358 NSCLC = assay: In vivo tumor growth inhibition, newly-implanted NCI-H358 NSCLC; design: species or system nu/nu mice
Description: (§3) FIG. 3A and FIG. 3B. […] FIG. 3A: 1×10^7 NCI-H358 NSCLC cells were injected subcutaneously into nu/nu mice on day 0. FIG. 3B: 5×10^6 A673 rhabdomyosarcoma cells were injected subcutaneously into nu/nu mice on day 0. Mice were injected i.p. with the indicated IgG on day 1 and 2 times/week thereafter. […] Tumors were measured 2-3 times per week. Mean and standard error is shown for the duration of the study in FIG. 3A, while data for the last day of the study (day 26) is shown in FIG. 3B.
(§4) Nu/nu mice were injected subcutaneously with either 1×10^7 NCI-H358 NSCLC cells or 5×10^6 A673 rhabdomyosarcoma cells on day 0. […] The tumors were then measured twice per wk for a period of approximately six wk for the NCI-H358 bearing mice and four wk for the A673 bearing mice. Tumor volume was calculated according to the formula: volume=L×W×H, where L=length, W=width, H=height.

[1] = tested on: VEGFR2 (KDR/Flk-1), sFlk-1-biotin; assay: ELISA: VEGF binding to VEGFR2-coated wells in presence of antibody; design: species or system mouse
Description: (§5) FIG. 2. […] The plate was then incubated with rabbit anti-VEGF (A-20, Santa Cruz Biotechnology, Inc.) at 1 μg/ml and developed using a peroxidase conjugated goat anti-rabbit antibody. Assays were performed in triplicate. Mean percent binding in the absence of antibody is shown, together with the standard deviation.
(§6) The assay was also performed by coating wells of a microtiter plate with either control or test IgG.

mouse VEGF = biological target: T1, mouse VEGF (Mus musculus, UniProt Q00731); assay: Indirect ELISA with mouse VEGF; type: binding
T1 sequence (Q00731 27-190 isoform Q00731-2): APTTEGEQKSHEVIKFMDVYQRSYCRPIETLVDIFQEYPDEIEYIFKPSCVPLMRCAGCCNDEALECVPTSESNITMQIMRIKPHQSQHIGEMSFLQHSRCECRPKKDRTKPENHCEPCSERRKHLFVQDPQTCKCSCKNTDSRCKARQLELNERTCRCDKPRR

VEGFR1 (FLT-1), Flt-1/Fc = assay: ELISA: VEGF binding to VEGFR1-coated wells in presence of antibody; settings: summary table
Description: as §5, §6

[2] = biological target: T2, VEGF alone or VEGF associated with sFlk-1 (VEGF:Flk-1) (Homo sapiens, UniProt P15692); assay: Indirect and capture ELISA for reactivity with VEGF alone or VEGF associated with sFlk-1; type: binding; settings: VEGF alone or VEGF:Flk-1
T2 sequence (P15692 27-191 isoform P15692-4): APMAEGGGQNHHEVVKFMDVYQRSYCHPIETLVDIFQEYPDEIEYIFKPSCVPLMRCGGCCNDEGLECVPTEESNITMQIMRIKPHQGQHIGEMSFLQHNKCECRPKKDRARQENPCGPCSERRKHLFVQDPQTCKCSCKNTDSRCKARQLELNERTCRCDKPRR
Description: The Flk-1/SEAP protein was produced and purified as described by Tessler etal. (1994). Basically, the extracellular domain of Flk-1 (sFlk-1) was produced in Spodoptera frugiperda (Sf9) cells and purified by immunoaffinity techniques utilizing a monoclonal anti-Flk-1 antibody (1A8). sFlk-1 was then biotinylated and bound on avidin-coated plates.
The reactivity was determined as described above for the initial screening.
A capture ELISA was also developed. In the capture ELISA, microtiter plates were coated overnight at 4° C. with 100 ng of the indicated antibody. […] Streptavidin conjugated to peroxidase (Kirkegaard & Perry Laboratories, Inc.), diluted 1:2000, was used as a second layer and developed.

NCI-H358 NSCLC tumors = assay: Treatment of established NCI-H358 NSCLC tumor xenografts; type: in vivo, nu/nu mice
Description: FIG. 4. […] Mean tumor volume along with the SEM over 116 days is shown.
as §1, §2
Doses were 50-100 μg every 3-5 days. […] In addition to measuring mean tumor volume (FIG. 4), photographs of the mice from each treatment group were also taken to show the differences in tumor size and appearance at the end of the study.

KDR = assay: 125I-VEGF binding studies on KDR expressing endothelial cells (ABAE cells); design: species or system bovine
[3] = tested on: NCI-H358 NSCLC and HT29 colon adenocarcinoma xenografts and normal organs; assay: In vivo localization in mice bearing human tumor xenografts (immunohistochemistry 24 h after i.v. injection); design: species or system mouse
Description: Tumors were grown subcutaneously in immunocompromised mice (NCI-H358 NSCLC in nu/nu mice and HT29 colon adenocarcinoma in SCID mice) until the tumor volume was approximately 1 cm^3. 100 μg of unlabeled antibody for studies using SCID mice, or 100 μg of biotinylated antibody for studies using nude mice, was injected intravenously via a tail vein. Twenty four hours later, the mice were anesthetized, perfused with PBS, and tumor and organs including heart, lungs, liver, kidneys, intestines and spleen were collected and snap frozen in liquid nitrogen.
The tumor and organs from each mouse were sectioned on a cryostat and stained for antibody immunohistochemically as above, with the exception that sections from the nude mice were developed using peroxidase labeled streptavidin-biotin complex (Dako, Carpinteria, Calif.) and the sections from the SCID mice were developed using two peroxidase-conjugated secondary antibodies, a goat anti-mouse IgG+IgM followed by a rabbit anti-goat IgG.
100 μg of GV39M and 3E7 or isotype-matched control IgG were injected into SCID mice bearing HT29 human colonic adenocarcinomas. Twenty-four hours later, the mice were sacrificed, exsanguinated and the tumors and tissues were removed.

[4] = biological target: T3, denatured VEGF121 and VEGF165 (Homo sapiens, UniProt P15692); assay: Western blot analysis of anti-VEGF antibodies; type: binding; settings: reducing and non-reducing conditions
T3 sequence (P15692 27-191 isoform P15692-4): T2 sequence (P15692 27-191 isoform P15692-4)
Description: The nitrocellulose membrane was blocked using Sea-Block PP82-41 (East Coast Biologics, Berwick, Me.), and probed with primary antibodies using a mini-blotter apparatus (Immunetics, Cambridge, Mass.). The membranes were developed after incubation with the appropriate peroxidase-conjugated secondary antibody by ECL enhanced chemiluminescence.
Western blot analyses of anti-VEGF antibodies were conducted by separating VEGF165 in the presence of 5% FCS using SDS-PAGE on a 12% gel and analyzing by a standard western blotting protocol using ECL detection. The primary antibodies were incubated with the nitrocellulose membrane using a multi-lane mini-blotter apparatus.

A673 rhabdomyosarcoma = assay: In vivo tumor growth inhibition, newly-implanted A673 rhabdomyosarcoma; design: species or system nu/nu mice
Description: as §3, §4

[5] = tested on: VEGF-mediated growth of ABAE cells; assay: Endothelial cell growth assay (MTS), VEGF-mediated growth of ABAE cells; type: cell-based, bovine; settings: summary table
Description: ABAE cells were grown in the presence of the various indicated antibodies and 0.5 nM VEGF. Growth after 4 days was determined colorimetrically by the enzymatic conversion of MTS (Owen's reagent) to a yellow formazan. […] Background was determined by growing cells without VEGF or antibody and was subtracted from the control and sample wells.
Adult bovine aortic endothelial (ABAE) cells were plated into 96-well tissue culture plates at 1500 cells/well and grown in the presence of 0.5 nM human VEGF with the addition of the various sample and control antibodies. Control wells received media with or without VEGF.
After 4 days of incubation, the cells were quantified by an MTS (3-(4,5-dimethylthiazol-2-yl)-5-(3-carboxylmethoxyphenyl)-2-(4-sulfophenyl)-2H-tetrazolium, inner salt) conversion assay, where MTS conversion to a formazan is proportional to cell number and can be followed by absorbance at 490 nm (Cell Titer 96 AQueous One Solution Cell Proliferation Assay, Promega, Madison, Wis.). The assay was performed according to the manufacturer's instructions.
Cell growth was estimated by subtracting the MTS conversion in cultures to which VEGF was not added. Results were expressed as a percentage of the MTS conversion in control cultures to which only VEGF was added (Buttke et al., 1993).

[6] = tested on: progressive disease in cancer patients; settings: clinical trials; cited from earlier work
[7] = dose-related; cited from earlier work
[8] = Blood clearance of radioiodinated 2C3-GUS after intravenous injection; type: in vivo, mice; settings: 125I-labelled
From the text: 2C3-GUS was radioiodinated with ^125I to a specific activity of 5×10^6 cpm/μg.

[9] = tested on: human NCI-H358 NSCLC tumors; assay: Localization of 2C3-GUS after i.v. injection into tumor-bearing SCID mice; type: in vivo
[10] = 100 μg i.p. 2 times per wk from day 1, controls approximately 1000 mm^3

## 2C3 F(ab′)2: F(ab′)2 fragment of 2C3
VEGFR2 (KDR/Fc)
  Blocking of VEGF binding to VEGFR2/Fc in solution: blocked the binding of VEGF to VEGFR2/Fc

## 2C3: anti-VEGF monoclonal IgG2a,k from hybridoma ATCC PTA 1595; blocks VEGF binding to VEGFR2 but not VEGFR1
VEGFR2
  Blocking of VEGF-induced phosphorylation of VEGFR2: block VEGF-induced phosphorylation of VEGFR2 in PAE/KDR cells
HT1080 fibrosarcoma
  Effect on growth of established HT1080 tumors: arrested the growth of the tumors
NCI-H358 NSCLC; 10 μg twice per wk
  Tumor growth retardation in NCI-H358 tumor model, lower dose: less marked
NCI-H358 NSCLC; [10]
  Final tumor volume: approximately 150 mm^3
[1]; 100 fold molar excess over VEGF
  Reduction in VEGF binding to VEGFR2: about 74%
[1]; 1000-fold molar excess over VEGF
  VEGF bound to VEGFR2-coated wells, % of amount bound in absence of antibody: ~19%
[1]; 1000 fold molar excess over VEGF
  Reduction in VEGF binding to VEGFR2: about 81%
[1]; summary table
  Blocks VEGF from binding to VEGFR2: Yes
Mouse VEGF
  Reactivity with mouse VEGF: all the antibodies except 2C3 react with mouse VEGF
VEGFR1 (FLT-1), Flt-1/Fc
  Blocks VEGF from binding to VEGFR1: No
[2]
  Predominant Reactivity: VEGF
NCI-H358 NSCLC tumors; 100 μg i.p., initial treatment 500 μg i.v.
  Mean tumor weight at end of study (day 116): 0.054 g
NCI-H358 NSCLC tumors; 100 μg, start 480 mm^3 (2C3), 428 mm^3 (3E7)
  Mean tumor volume after approximately 14 wk of treatment: 84 mm^3
NCI-H358 NSCLC tumors; 50-100 μg i.p. every 3-5 days, approximately 10 weeks
  Mean tumor volume at the end of the study as % of initial mean tumor volume: 30%
NCI-H358 NSCLC tumors; approximately 14 wk of treatment, 100 μg
  Decrease in mean tumor volume: approximately 80%
NCI-H358 NSCLC tumors; mouse, in vivo
  Regression of established NCI-H358 tumors: caused significant tumor regressions; also recorded: slow regression of the tumors
KDR
  Blocking of 125I-VEGF binding to KDR: blocks VEGF from binding to KDR in a concentration dependent manner
[3]; 24 hours after i.v. antibody, 3E7 and GV39M bound tumor vascular endothelium, 2C3 tumor stroma
  Immunohistochemical Reactivity, Tumor: 3+
[3]; biotinylated antibody, i.v., nu/nu mice
  In vivo localization in H358 human NSCLC tumor: intense staining of connective tissue surrounding the vasculature
[3]; mouse, in vivo
  In vivo localization in HT29 human tumor model: localized strongly to the connective tissue
  In vivo normal mouse tissue localization: None
[4]
  Reactivity with VEGF on western blot: react with denatured VEGF121 and VEGF165 under reducing and non-reducing conditions
A673 rhabdomyosarcoma; [10]
  Final tumor volume: approximately 150 mm^3
A673 rhabdomyosarcoma; 10 or 1 μg twice per wk
  Effect on growth of A673 tumors, lower doses: did slow the growth of A673 tumors
[5]
  Blocks VEGF-induced proliferation: Yes

## NC(=O)c1nnn(Cc2cc(Cl)c(C(=O)c3ccc(Cl)cc3)c(Cl)c2)c1N [CAI, carboxyamidotriazole]
[6]
  Disease stabilization, share of cancer patients having progressive disease before treatment: 49%

## recombinant, humanized form of Genentech's anti-VEGF antibody: recombinant, humanized form of Genentech's anti-VEGF antibody evaluated in monkeys (Ryan et al., 1999)
[7]
  Preclinical safety finding in monkeys: physeal dysplasia

## 2C3-GUS
[8]
  t½ α: about 6 hours
  t½ β: about 25 hours
[9]; immunohistochemistry on frozen tumor sections
  Localization after i.v. injection: specifically localized to tumor vasculature and surrounding tumor stroma
[9]; mouse, in vivo
  Staining of normal tissues: Normal tissues were unstained
